The target of data set [1] is CTX-M β-lactamase (Escherichia coli, UniProt Q9L5C8). The data set is classed as biochemical. The conditions noted are these: Ki AmpC versus Ki CTX-M.
The target of data set [2] is T1, AmpC β-lactamase (Escherichia coli, UniProt P00811). The conditions noted are these: at relevant concentrations; no reference given; cited from earlier work.
Data set [3] deals with T1, AmpC β-lactamase. The format is biochemical. The conditions noted are these: read-out: Km of nitrocefin for AmpC; substrate; 100 mM Tris-HCl pH 7.0.
The test system of data set [4] is O=C(Cc1cccs1)N[C@@H]1C(=O)N2C(C(=O)O)=C(/C=C/c3ccc([N+](=O)[O-])cc3[N+](=O)[O-])CS[C@H]12. Description: purified protein, by the assay type. The conditions noted are these: other: substrate, 100 mM Tris-HCl pH 7.0, 19.0 °C.

The term Km denotes the substrate concentration at which the rate is half of its maximum.

T1 sequence (P00811 20-377): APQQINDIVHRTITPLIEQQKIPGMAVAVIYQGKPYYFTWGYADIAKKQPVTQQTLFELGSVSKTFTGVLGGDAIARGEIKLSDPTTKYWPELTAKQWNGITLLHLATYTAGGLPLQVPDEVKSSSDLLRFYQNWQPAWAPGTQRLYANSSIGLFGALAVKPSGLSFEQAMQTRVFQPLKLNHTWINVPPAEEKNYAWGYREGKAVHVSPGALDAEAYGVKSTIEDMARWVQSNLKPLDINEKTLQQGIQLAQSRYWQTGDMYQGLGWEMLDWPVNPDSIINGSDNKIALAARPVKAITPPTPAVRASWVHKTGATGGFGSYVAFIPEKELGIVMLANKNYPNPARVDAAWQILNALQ

Consider `O=C(Nc1cccc(-c2nnn[nH]2)c1)c1cccc(F)c1` [Compound 12], for which the “specificity (CTX-M over AmpC)” value in data set [1] is on record as “over 100 fold”.

Take `O=C(O)[C@H]1/C(=C/CO)O[C@@H]2CC(=O)N21` [clavulanate]: the “inhibition of AmpC” value in data set [2] was “does not inhibit AmpC at relevant concentrations”.

As to `O=C(Cc1cccs1)N[C@@H]1C(=O)N2C(C(=O)O)=C(/C=C/c3ccc([N+](=O)[O-])cc3[N+](=O)[O-])CS[C@H]12` [nitrocefin], in data set [3], the Km was 400 µM.

As for CTX-M β-lactamase (Escherichia coli), the Km in data set [4] is 11.6 µM.
